Results taken from ChEMBL document CHEMBL1201862, “PubChem BioAssay data set” (2004).
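Cells were grown in 96-well plates and exposed to each compound for 48 hours at five concentrations; endpoints were interpolated linearly between bracketing concentrations, or set to the highest concentration if not reached. At the GI50, growth is halved.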 Active and inactive are the calls of the source. Rule as the data show it: active = GI50 up to about 1.1 µM and inactive = higher.

Legend:
Experiment in all cases: NCI-60 cell line screen, 48 h
A498 = test system: A498
NCI-H226 = test system: NCI-H226
Hs-578T = test system: Hs-578T
SK-MEL-5 = test system: SK-MEL-5
CAKI-1 = test system: CAKI-1
OVCAR-8 = test system: OVCAR-8
U-251 = test system: U-251
NCI-H460 = test system: NCI-H460
OVCAR-3 = test system: OVCAR-3
UACC-257 = test system: UACC-257
HCC 2998 = test system: HCC 2998
KM12 = test system: KM12
HOP-62 = test system: HOP-62
EKVX = test system: EKVX
SK-MEL-2 = test system: SK-MEL-2
OVCAR-5 = test system: OVCAR-5
SW-620 = test system: SW-620
LOX IMVI = test system: LOX IMVI
SK-OV-3 = test system: SK-OV-3
IGROV-1 = test system: IGROV-1

## CO[C@H]1[C@H](O)[C@H](O[C@H]2CC[C@@]3(C)[C@H](CC[C@@H]4[C@@H]3CC[C@]3(C)[C@@H](C5=CC(=O)OC5)CC[C@]43O)C2)O[C@@H](C)[C@@H]1O [NERIIFOLIN]
A498
  GI50: 8.63 nM (active)
NCI-H226
  GI50: 5.96 nM (active)
Hs-578T
  GI50: < 0.1 nM (active)
SK-MEL-5
  GI50: 0.838 nM (active)
CAKI-1
  GI50: 0.572 nM (active)
OVCAR-8
  GI50: 1.08 nM (active)
U-251
  GI50: 1.32 nM (active)
NCI-H460
  GI50: 0.6 nM (active)
OVCAR-3
  GI50: 0.515 nM (active)
UACC-257
  GI50: 1.67 nM (active)
HCC 2998
  GI50: 9.4 nM (active)
KM12
  GI50: 1.52 nM (active)
HOP-62
  GI50: 0.27 nM (active)
EKVX
  GI50: 0.473 nM (active)
SK-MEL-2
  GI50: 1.17 nM (active)
OVCAR-5
  GI50: 1.54 nM (active)
SW-620
  GI50: 0.925 nM (active)
LOX IMVI
  GI50: 0.755 nM (active)
SK-OV-3
  GI50: 1.08 nM (active)
IGROV-1
  GI50: 0.526 nM (active)

## CC(=O)[C@H]1CC[C@H]2[C@@H]3CCC4=CC(=O)CC[C@]4(C)[C@H]3CC[C@]12C [PROGESTERONE]
A498
  GI50: 24500 nM (inactive)
NCI-H226
  GI50: 11700 nM (inactive)
Hs-578T
  GI50: 3300 nM (inactive)
SK-MEL-5
  GI50: 12100 nM (inactive)
CAKI-1
  GI50: 28500 nM (inactive)
OVCAR-8
  GI50: 18400 nM (inactive)
U-251
  GI50: 17300 nM (inactive)
NCI-H460
  GI50: 18600 nM (inactive)
OVCAR-3
  GI50: 17300 nM (inactive)
UACC-257
  GI50: 12900 nM (inactive)
HCC 2998
  GI50: 16900 nM (inactive)
KM12
  GI50: 16700 nM (inactive)
HOP-62
  GI50: 20600 nM (inactive)
EKVX
  GI50: 1160 nM (inactive)
SK-MEL-2
  GI50: 20000 nM (inactive)
OVCAR-5
  GI50: 19500 nM (inactive)
SW-620
  GI50: 31000 nM (inactive)
LOX IMVI
  GI50: 17500 nM (inactive)
SK-OV-3
  GI50: 20400 nM (inactive)
IGROV-1
  GI50: 24400 nM (inactive)
